In US10906946B2, “Thrombin inhibitors” (priority 2015, dated 2021):
Peptide text beside a SMILES is read from it.

Tests used:
[1] = biological target: T1, human α-thrombin (Homo sapiens, UniProt P00734); experiment: Thrombin amidolytic activity assay with chromogenic substrate S2238; assay type: biochemical
T1 construct: residues in the termini of the light chain; purchased Chemo-Sero-Therapeutic Research Institute (Kaketsuken, Japan), as a gift, not bought
In short: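 Run in 50 mM Tris pH 7.4, 100 mM NaCl, 1 mg/ml BSA; p-nitroaniline release from S2238 monitored at 405 nm for 10 min. IC50 and Hill coefficients from dose-response fits; inhibition constants from varied S2238 concentrations using Morrison tight-binding equation.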

[2] = test system: blood; experiment: Anti-coagulation effect of peptides in blood tubes (visual clot formation); parameters: species or system human (healthy volunteers); details: room temperature
Description: Individual peptides are dissolved in phosphate buffered saline to prepare 10× peptide solutions (ie. concentrations of peptides are 10 times higher than the final concentrations at which they are to be tested). 0.3 ml of the 10× peptide solutions are placed in blood tubes without any additives. Blood was drawn from healthy volunteers using syringes and immediately transferred to a 50 ml conical centrifuge tube (Falcon tube) before pipetting 2.7 ml of the blood into blood tubes with peptide solutions. Final concentrations of peptides are as stated in Table 5 and 6.
Blood tubes with various peptides at different concentrations were left standing at room temperature until tested at designated times. At different time points, tubes were inverted several times and visually inspected for insoluble materials as indications of clot formation.

[3] = biological target: T2, thrombin (Homo sapiens, UniProt P00734); experiment: Cleavage of peptide by thrombin (RP-HPLC, ESI-MS); assay type: biochemical
T2 construct: residues in the termini of the light chain; and in the autolysis loop and C-terminus of the heavy chain; purchased Chemo-Sero-Therapeutic Research Institute (Kaketsuken, Japan), as a gift, not bought
Description: A. Evaluation of avathrin cleavage by thrombin by HPLC chromatograms. Avathrin (150 μM) was incubated with thrombin (5 μM) for various times and the reaction mixtures were separated using RP-HPLC; the masses of the cleavage products were analyzed with ESI-MS. At 0 min (upper panel), a single peak corresponding to full length avathrin (mass 3139 Da) was identified. At 120 min (middle panel), two new peaks corresponding to N-terminal cleavage product (^1[…]^10 of SEQ ID NO: 1; mass 982 Da) and C-terminal cleavage product ([…] (SEQ ID NO: 4); mass 2176 Da) were identified in addition to avathrin peak. At 600 min (lower panel), two peaks corresponding to the N- and C-terminal cleaved products were observed while avathrin peak was not observed, indicating complete cleavage. B. Time-dependent cleavage of avathrin by thrombin. Relative percentages of avathrin, its N- and C-terminal cleavage products were quantified by calculating areas under the curve. Each data point is the mean±S.D. of at least three independent experiments. C. Effect of thrombin cleavage on inhibitory properties of avathrin. Avathrin was incubated with thrombin (0.81 nM) for up to 36 h, and assayed at different time points for its ability to inhibit thrombin amidolytic activity on the chromogenic substrate S2238. […]
Thrombin amidolytic activity assays for all peptides were performed in 96-wells microtiter plates in 50 mM Tris buffer (pH 7.4) containing 100 mM NaCl and 1 mg/ml bovine serum albumin. […] The rates of formation of p-nitroaniline were followed by measuring the absorbance at 405 nm for 10 min with a Tecan InfinitePro M200 microplate reader from Tecan (Männedorf, Switzerland). […] To measure the inhibitory constants, different concentrations of S2238 were used and the residual velocities were determined using the Morrison's tight binding equation. Inhibition of thrombin fibrinogenolytic activity of peptides were tested by measuring absorbance at 650 nm using a Sunrise microplate reader from Tecan (Männedorf, Switzerland) as described previously [Koh C Y, et al., J Biol Chem 282: 29101-13 (2007)]. […] Effects of avathrin on the amidolytic activities of these serine proteases were determined using respective chromogenic substrates. […] After different incubation times, reactions were quenched with 1% TFA (pH 1.8) and loaded onto a Jupiter Proteo column (4 μm, 90 Å, 100×1.0 mm) attached to a Dionex nano-HPLC system from Thermo Fisher Scientific (Waltham, Mass., USA) and eluted using an acetonitrile gradient with 0.05% TFA and 99.95% MilliQ water as eluent A and 0.05% TFA, 19.95% MilliQ water and 80% ACN as eluent B. Masses of all peaks were measured to identify cleavage products, which were subsequently quantified by integrating the peaks and calculating the area under the curves. […]

[4] = inhibitory constant Ki for thrombin, thrombin 0.81 nM, various S2238 concentrations
[5] = final concentration 75 micromolar
[6] = final concentration 150 micromolar
[7] = final concentration 300 micromolar

CC[C@H](C)[C@H](NC(=O)[C@H](CCCCN)NC(=O)[C@@H]1CCCN1C(=O)[C@@H](NC(=O)[C@H](C)NC(=O)[C@@H](NC(=O)[C@H](CCC(N)=O)NC(=O)[C@H](Cc1c[nH]cn1)NC(=O)CNC(=O)CNC(=O)[C@@H](N)CO)[C@@H](C)O)C(C)C)C(=O)N[C@@H](CO)C(=O)N[C@@H](CCCCN)C(=O)N[C@@H](CCC(N)=O)C(=O)NCC(=O)N[C@@H](CC(C)C)C(=O)NCC(=O)NCC(=O)N[C@@H](CC(=O)O)C(=O)N[C@@H](Cc1ccccc1)C(=O)N[C@@H](CCC(=O)O)C(=O)N[C@@H](CCC(=O)O)C(=O)N[C@H](C(=O)N1CCC[C@H]1C(=O)N[C@@H](CO)C(=O)N[C@@H](CC(=O)O)C(=O)N[C@@H](CCC(=O)O)C(=O)N[C@H](C(=O)N[C@H](C(=O)N[C@@H](CCC(=O)O)C(=O)O)[C@@H](C)CC)[C@@H](C)CC)[C@@H](C)CC [Avathrin] (H-SGGHQTAVPKISKQGLGGDFEEIPSDEIIE-OH; N-terminus and C-terminus assumed)
times higher affinity for thrombin than Bivalirudin [1]: approximately 5 times | Hill slope of thrombin amidolytic inhibition ([1]; 0 min pre-incubation where stated): 0.92±0.01 | Hill slope of thrombin amidolytic inhibition, 10 min pre-incubation ([1]; 10 min pre-incubation): 0.94±0.02 | IC50 ([1]; IC50(nM), Table 2): 6.95 ± 0.42 nM | Hill Slope ([1]; Table 2): 0.92 ± 0.02 | thrombin amidolytic activity inhibited after prolonged incubation ([1]; at 24 h, same avathrin:thrombin ratio as cleavage experiments): > 45% | Ki [1, 4]: 0.5453 ± 0.0031 nM | inhibition at 0.01 µM ([1]; read-out: inhibition of thrombin activity): 65% | inhibition at 0.001 µM ([1]; read-out: inhibition of thrombin amidolytic activity at equimolar concentrations): 14.3 ± 1.39% | Time to observe clot formation [2, 5]: 42 to 52 h | Time to observe clot formation [2, 6]: 52 to 66 h | Time to observe clot formation [2, 7]: 52 to 66 h | time at which complete cleavage by thrombin was observed ([3]; avathrin 150 μM, thrombin 5 μM): 600 min

CC[C@H](C)[C@H](NC(=O)[C@H](C)NC(=O)[C@H](CC(=O)O)NC(=O)[C@H](CC(=O)O)NC(=O)[C@@H]1CCCN1C(=O)[C@@H](NC(=O)[C@H](CCC(=O)O)NC(=O)[C@H](CCC(=O)O)NC(=O)[C@H](Cc1ccccc1)NC(=O)[C@H](CC(=O)O)NC(=O)CNC(=O)[C@@H]1CCCN1C(=O)[C@@H]1CCCN1C(=O)[C@H](C)NC(=O)[C@@H](NC(=O)[C@H](CO)NC(=O)[C@H](Cc1ccc(O)cc1)NC(=O)[C@H](CCSC)NC(=O)[C@H](CCCCN)NC(=O)[C@@H]1CCCN1C(=O)[C@@H](NC(=O)[C@H](C)NC(=O)[C@H](CCCNC(=N)N)NC(=O)[C@@H](NC(=O)[C@H](C)NC(=O)[C@H](CCC(=O)O)NC(=O)[C@H](CC(=O)O)NC(=O)[C@@H](N)CO)C(C)C)[C@@H](C)CC)[C@@H](C)O)[C@@H](C)CC)C(=O)N[C@@H](CCC(=O)O)C(=O)N[C@@H](CCC(=O)O)C(=O)O [Ultravariegin] (H-SDEAVRAIPKMYSTAPPGDFEEIPDDAIEE-OH; N-terminus and C-terminus assumed)
fold more potent than variegin (Ki) [1]: more than 70 fold | fold stronger affinity compared to avathrin and variegin [1]: > 200 fold | times higher affinity for thrombin than Bivalirudin [1]: ~650 times | Ki ([1]; Affinity (nM), Table 4, Ki values): 0.001 nM | IC50 ([1]; IC50 (nM), Table 5): 0.4 ± 0.09 nM | IC50 ([1]; IC50 of inhibition of thrombin amidolytic activity, thrombin 0.81 nM, S2238 100 μM, without pre-incubation (0 min) where stated): 0.26 ± 0.008 nM | Ki ([1]; Ki (pM), Table 5): 0.0044 ± 0.00035 nM | Ki [1, 4]: 0.0015 nM | Time to observe clot formation [2, 5]: 91 to 101 h | Time to observe clot formation [2, 6]: 101 to 139 h | Time to observe clot formation [2, 7]: 101 to 139 h | time to complete cleavage by thrombin ([3]; peptide incubated with thrombin (30:1)): 18 h
